In patent US10736859B2, “Eutectic formulations of cyclobenzaprine hydrochloride and amitriptyline hydrochloride” (Tonix Pharma Holdings Limited, priority 2013, dated 2020):

Legend:
[1] = XRPD of binary Cyclobenzaprine HCl/mannitol mixtures (Example 3); format: physicochemical; conditions: Cyclobenzaprine HCl/mannitol mixtures 30, 50, 65, 75 and 90% API, no thermal treatment
Protocol: In order to confirm the eutectic formation and to characterize its physical properties, several binary mixtures at different ratios of API-excipient were prepared and analyzed by DSC and by X-ray powder diffraction (XRPD). The mixtures were obtained by gently milling in agate mortar of micronized Cyclobenzaprine HCl and mannitol, in order to obtain homogeneous distribution of the particles. For each DSC heating curve, the onset temperature and the enthalpy were evaluated both for the eutectic contribute and for the excess of component. The recorded values were plotted and a phase diagram between the two components was obtained with a characteristic profile of phase diagrams of eutectic mixtures.
Mixtures also were investigated by XRPD and compared with the patterns of pure components. […] The XRPD patterns obtained in the mixtures, compared with pure components, were plotted in order to confirm the linearity of the peak intensities (cpf) of mannitol and Cyclobenzaprine HCl, and a proportional peak height at characteristic 2 theta angles.
X-ray powder diffraction (XRPD) tests were performed with a ULTIMA IV (Rigaku) instrument, laying the sample on a static sample holder. […] The radiation generated by the Cockcroft-Walton method is constituted by Kα1 (1.540562 Å) and Kα2 (1.544398 Å). […]

[2] = DSC, FT-IR/ATR and XRPD compatibility of Cyclobenzaprine HCl with additional excipients, mixed (A) and milled (B) 1:1 mixtures (Example 2); format: physicochemical; conditions: DSC; for Interactions between Cyclobenzaprine HCl and excipients, Mixture 1:1 (mixed): mixture A, mechanical mixing only; for Interactions between Cyclobenzaprine HCl and excipients, Mixture 1:1 (milled): mixture B, ground in agate mortar
Protocol: As described above, thermal analytical techniques were further used to assess the compatibility of a drug product (tablet) containing Cyclobenzaprine HCl (API). The compatibility assessment was carried out between the API and additional excipients in a 1:1 ratio. The 1:1 API-excipient mixtures were formed in two different ways: first, by mixing only, and second, by strong milling in an agate mortar. The thermal behavior recorded in the two different mixtures were compared with those of the single components. On the basis of thermal events recorded for each component and for the mixtures, the analyses were carried out by investigating the meanings of the peaks recorded by differential scanning calorimetry (DSC) in mixtures between the API and the excipients. Furthermore, in order to define the nature of the interaction, the Fourier Transformate Infra Red Spectroscopy with Total Attenuated Reflectance (FT-IR/ATR) and X-ray powder diffraction (XRPD) of some samples (API, excipient, and mixed and milled mixtures) was carried out and compared.
Aliquots of API and each excipient were weighed in a ratio of 1:1 and ground in an agate mortar. Then, the homogeneous mixtures were analyzed. These sample mixtures were labeled “B”, while the mechanical-only mixtures were labeled “A.”
The DSC heating curves were obtained by TA 821 DSC Mettler instrument under the following conditions: • Heating rate: 10° C./min • Ambient: Nitrogen 30 mL/min • Sample holder: normal open aluminum pan • Temperature range: from 25° C. to 250° C. • Instrument calibration: Indium sample purity 99.999% Fourier Transformate Infra Red Spectroscopy with Total Attenuated Reflectance (FT-IR/ATR)
The FT-IR spectra were collected with a Perkin Elmer spectrum Two instrument with air as background and 4 cm^−1 resolution.
X-ray powder diffraction (XRPD) tests were performed with the ULTIMA IV instrument (Rigaku), laying the sample on a static sample holder. The X-ray focusing slit has a variable width, interlocked with the q value. The X-ray tube has a Copper target, with a current intensity of 40 mA and a voltage of 40 kV. Radiation was generated by the Cockcroft-Walton method, and was constituted by Kα1 (1.540562 Å) and Kα2 (1.544398 Å). The analytical conditions were: • Fixed Time; sampling width 0.02 deg, scanning rate 1.3 s/step, 2 q range 3.35 deg and sample holder; amorphous glass equiangular 9200/2G, 0.2 mm deep. The sample was pressed with a glass plate.

- Interactions between Cyclobenzaprine HCl and excipients, Mixture 1:1 (mixed) [2]: Eutectic
- Interactions between Cyclobenzaprine HCl and excipients, Mixture 1:1 (milled) [2]: Eutectic
SMILES: OC[C@@H](O)[C@@H](O)[C@H](O)[C@H](O)CO [Mannitol]
- Adduct formation by XRPD [1]: no adduct formation, only a physical eutectic formation
- Interactions between Cyclobenzaprine HCl and excipients, Mixture 1:1 (mixed) ([2]; listed as mannitol): physical complex interaction peak (eutectic)
- Interactions between Cyclobenzaprine HCl and excipients, Mixture 1:1 (milled) ([2]; listed as mannitol): physical complex interaction peak (eutectic)
